Four molecules from ChEMBL document CHEMBL1158753, “Ammodendrine and N-methylammodendrine enantiomers: isolation, optical rotation, and toxicity” (J Nat Prod, 2005) can be followed below.

A short description of this data set: […] against iv dosed Swiss-Webster mouse. It is filed as organism-based. As to conditions: in vivo.

SMILES strings stand for the structures.

One may read the LD50 as the dose expected to kill half of the subjects tested. Low readings indicate a more toxic substance, high ones a less toxic substance. Consider `CC(=O)N1C=C([C@@H]2CCCCN2C)CCC1`, for which the LD50 was determined as 63.4 mg/kg.

The molecule `CC(=O)N1C=C([C@H]2CCCCN2C)CCC1` showed an LD50 of 56.3 mg/kg.

For the molecule `CC(=O)N1C=C([C@H]2CCCCN2)CCC1`, the LD50 came out at 94.1 mg/kg.

`CC(=O)N1C=C([C@@H]2CCCCN2)CCC1` gave an LD50 of 115 mg/kg.
